Laboratory results: publication PMC12040169 (PLOS Biology, 2025)

Test: in vitro
Conditions: human, hela cells, % viability

Q: For `O=C(NCc1ccc(OC2CCNCC2)cc1)c1ccccn1` [CBK036361T], which viability at 28.5 h, 10 µM is on record?
A: 93.1%

Q: For `O=C(Nc1cncc(OC2CCNCC2)n1)c1ccoc1` [CBK036366T], which viability at 28.5 h, 10 µM is on record?
A: 92%

Q: For `O=C(Nc1cncc(OC2CCNCC2)n1)c1cnccn1` [CBK036372T], which viability at 28.5 h, 10 µM is on record?
A: 93%

Q: With `O=C(Nc1cncc(OC2CCNCC2)n1)c1cccnc1` [CBK036375T] as the compound, how does the viability at 28.5 h, 10 µM read?
A: 92.1%

Q: Which viability at 28.5 h, 10 µM does the source give for `O=C(Nc1cncc(OC2CCNCC2)n1)c1cnc2ccccc2c1` [CBK036377T] here?
A: 92.8%

Q: With `CN1CCCN(c2cc(C(F)(F)F)c3scc(C(=O)NCc4cccc(F)c4F)c3n2)CC1` [CBK036386T] as the compound, how does the viability at 28.5 h, 10 µM read?
A: 87.9%

Q: For `NCC1CCN(c2cc(C(F)(F)F)c3scc(C(=O)NCc4cccc(F)c4F)c3n2)CC1` [CBK036391T], which viability at 28.5 h, 10 µM is on record?
A: 71.6%

Q: Which viability at 28.5 h, 10 µM does the source give for `Cc1cccc(Cl)c1S(=O)(=O)c1ccc2ccnc(N3CCNCC3)c2c1` [CBK036394C] here?
A: 78.9%

Q: Which viability at 28.5 h, 10 µM does the source give for `COc1ccc([C@@]23CC[C@H](NC(=O)CSc4nccn4C)C[C@@H]2N(C)CC3)cc1OC` [CBK036444] here?
A: 84.7%

Q: For `COc1ccc([C@@]23CC[C@H](NC(=O)CS(=O)(=O)c4ccccc4)C[C@@H]2N(C)CC3)cc1OC` [CBK036445], which viability at 28.5 h, 10 µM is on record?
A: 105%

Q: Which viability at 28.5 h, 10 µM does the source give for `COc1ccc([N+](=O)[O-])cc1NC(=O)N[C@@H]1CC[C@@]2(c3ccc(OC)c(OC)c3)CCN(C)[C@H]2C1` [CBK036449T] here?
A: 111%

Q: Which viability at 28.5 h, 10 µM does the source give for `COc1ccc([C@@]23CC[C@@H](NC(=O)Nc4ccccc4C(F)(F)F)C[C@@H]2N(C)CC3)cc1OC` [CBK036466T] here?
A: 106%

Q: With `COc1ccc([C@@]23CC[C@@H](NC(=O)Nc4ccc(Cl)cc4[N+](=O)[O-])C[C@@H]2N(C)CC3)cc1OC` [CBK036474T] as the compound, how does the viability at 28.5 h, 10 µM read?
A: 84.1%

Q: For `COc1ccc(CNC(=O)c2cnc(-c3ccc(F)cc3)c(-c3ccc(C(C)=O)s3)c2)cc1` [CBK036577], which viability at 28.5 h, 10 µM is on record?
A: 90.7%

Q: With `Fc1ccccc1-c1cn2ccnc2c(N2CCOCC2)n1` [CBK036584] as the compound, how does the viability at 28.5 h, 10 µM read?
A: 105%

Q: With `COc1cccc(OC)c1-c1cn2ccnc2c(N[C@H](CO)C(C)C)n1` [CBK036586] as the compound, how does the viability at 28.5 h, 10 µM read?
A: 99.5%

Q: With `COc1ncc(-c2nccnc2N[C@H](C)c2ccccc2)c(OC)n1` [CBK036588] as the compound, how does the viability at 28.5 h, 10 µM read?
A: 83.7%

Q: With `COc1ncc(-c2nccnc2N2CCN(C)CC2)c(OC)n1` [CBK036595] as the compound, how does the viability at 28.5 h, 10 µM read?
A: 98.7%

Q: Which viability at 28.5 h, 10 µM does the source give for `Cc1cc(-c2nccnc2NCCCN2CCOCC2)cc(C)c1O` [CBK036598] here?
A: 92%

Q: With `c1cncc(-c2cn3ccnc3c(NCC3CC3)n2)c1` [CBK036609] as the compound, how does the viability at 28.5 h, 10 µM read?
A: 84%

Q: For `CC(=O)Nc1cccc(-c2nccnc2N[C@H](CO)C(C)C)c1` [CBK036611], which viability at 28.5 h, 10 µM is on record?
A: 97%

Q: With `COc1ccc(-c2cc(C(=O)Nc3nc4ccccc4[nH]3)cnc2-c2ccc(F)cc2)cn1` [CBK036617] as the compound, how does the viability at 28.5 h, 10 µM read?
A: 98.6%

Q: For `COc1ccc(-c2cc(C(=O)Nc3ccc4ncccc4c3)cnc2-c2ccccc2)cc1` [CBK036623], which viability at 28.5 h, 10 µM is on record?
A: 106%

Q: With `O=C(NC1CCc2ccccc21)c1cnc(-c2ccc(Cl)cc2)c(-c2ccc(O)cc2)c1` (stereo not drawn) [CBK036629] as the compound, how does the viability at 28.5 h, 10 µM read?
A: 91%

Q: With `c1csc(-c2nccnc2NCCCN2CCOCC2)c1` [CBK036632] as the compound, how does the viability at 28.5 h, 10 µM read?
A: 84.6%

Q: For `O=C(N[C@H]1CCN(Cc2ccccc2)C1)c1cnc(-c2ccccc2)c(-c2ccncc2)c1` [CBK036639], which viability at 28.5 h, 10 µM is on record?
A: 84.7%

Q: For `CC(=O)c1ccc(-c2cc(C(=O)NCc3cccc(C(F)(F)F)c3)cnc2-c2ccccc2)s1` [CBK036641], which viability at 28.5 h, 10 µM is on record?
A: 90.1%

Q: For `COc1ccccc1-c1nccnc1NCc1cc(OC)c(OC)c(OC)c1` [CBK036642], which viability at 28.5 h, 10 µM is on record?
A: 90.6%

Q: Which viability at 28.5 h, 10 µM does the source give for `COc1ccc(NC(=O)c2cnc(-c3ccc(Cl)cc3)c(-c3ccc(C(C)=O)s3)c2)cn1` [CBK036643] here?
A: 92.2%

Q: With `COc1ccc(-c2cc(C(=O)NCC(O)CO)cnc2-c2ccc(Cl)cc2)cn1` (stereo not drawn) [CBK036645] as the compound, how does the viability at 28.5 h, 10 µM read?
A: 94%

Q: For `Cc1cc(-c2nccnc2NCc2cccc(Cl)c2)cc(C)c1O` [CBK036646], which viability at 28.5 h, 10 µM is on record?
A: 87.4%

Q: For `CC(C)[C@@H](CO)Nc1nccnc1-c1ccoc1` [CBK036648], which viability at 28.5 h, 10 µM is on record?
A: 86.6%

Q: For `COc1ccc(C(C)C)cc1-c1nccnc1NCCc1c[nH]c2ccccc12` [CBK036650], which viability at 28.5 h, 10 µM is on record?
A: 109%
